From EP2112152A1, “Dihydropteridinones as Plk Inhibitors” (GPC Biotech AG, priority 2008, dated 2009)

Experiments:
Assay type in all cases: cell-based
[1] = target: Plk1 (Homo sapiens, UniProt P53350); assay: Cellular Plk1 kinase activity: nucleophosmin (B23) Ser4 phosphorylation in HCT116 cells (MSD electrochemiluminescence); parameters: host or cells: HCT116; settings: 100 ng/ml nocodazole, 4 hours after compound addition, read-out: Biochemical IC50 Nucleophosmin assay
Procedure: We observed the surprising finding that compounds of the invention were able to penetrate cell membranes and retained their activity as Plk1 inhibitors against native Plk1 expressed within living cancer cells.
Cellular Plk1 kinase activity was measured by quantification of nucleophosmin (B23) Ser4 phosphorylation in a cancer cell line. Nucleophosmin (B23) Ser4 is phosphorylated by Plk1, and this phosphorylation can be specifically detected by cross-reactivity of a phospho-Mek1/2 antibody that is able to recognizes a mitotic-specific phosphorylated form of nucleophosmin (B23) in a nocodazole dependent way (Zhang, H., Shi, X., Paddon, H., Hampong, M., Dai, W., and Pelech, S. (2004) B23/Nuleophosmin Serin 4 Phosphorylation Mediates Mitotic Functions of Polo-like Kinase 1. J. Biol. Chem., 279(34), 35726-35734).
Briefly, HCT116 cells (ATCC, Order No. CCL-247) were plated in 96 well dishes 24 hours prior to nocodazole treatment at 25 000 cells per well. Cells were then treated with 100 ng/ml nocodazole (Sigma-Aldrich, # M1404). 20 hours after nocodazole treatment, cells were exposed to the test compounds at various concentrations appropriate to determine an IC50. 4 hours after compound addition, medium was carefully removed and 120 µl of Complete Tris Lysis Buffer (R60TX; MSD, Gaithersburg MD) was added to each well. Samples were then stored at -20°C.
The level of nucleophosmin (B23) Ser4 phosphorylation in these cell lysis samples was estimated by electrochemiluminescence detection using the Meso Scale Discovery ("MSD") Technology Platform (MSD, Gaithersburg MD). The protocol used was as recommended by the manufacturer with the use of a phospho-Mek1/2 antibody (Cell Signalling, #9121) as primary antibody, and is as follows.
The cell lysates were thawed at room temperature and 40 µl were incubated on 96-well MULTI-ARRAY High Bind plates (L11XB; MSD) for 1.5 - 2 hours at room temperature. The supernatants were then removed and 150 µl of a 5% (w/v) solution of Blocker A (R93AA; MSD) in Tris Wash Buffer (R61TX; MSD) were added to each well. The plates were then incubated for 1 hour at room temperature before removal of the Blocker A solution and washed 4 times with 200 µl Tris Wash Buffer. 25 µl primary antibody (anti-phospho-MEK1/2, Cell Signalling, #9121, rabbit polyclonal), diluted 1:250 in a 1% (w/v) solution of Blocker A in Tris Wash Buffer, were added to each well. The plates were then incubated for 1 hour at room temperature before removal of the antibody solution and washed 4 times with 200 µl Tris Wash Buffer. Then, 25 µl of labelled secondary antibody (SULFO-TAG Goat Anti-Rabbit IgGAntibody (R32AB; MSD), diluted 1:500 in a 1% (w/v) solution of Blocker A in Tris Wash Buffer) were added to each well. The plates were then incubated for 1 hour at room temperature before removal of the antibody solution and washed 4 times with 200 µl Tris Wash Buffer. Then, […] of 1x Read Buffer T (R92TC; MSD) were carefully added to each well and the plates were quantitatively detected for each well with a SECTOR™ Imager 6000 (MSD).
Inhibitory activity of the compounds (IC) was calculated as % inhibition of nucleophosmin (B23) Ser4 phosphorylation compared to cells not treated with nocodazole.

[2] = system: IMR-90; assay: SRB cell proliferation assay, IMR-90; settings: Homo sapiens, 72 hours, SRB assay, slow cycling cell line, read-out: CELLULAR IC50 IMR-90
Procedure: (§1) We observed the surprising finding that compounds of the invention were useful in inhibiting proliferation of tumor cell lines (see Table 3).
(§2) Cells were exposed to the test compounds at various concentrations appropriate to determine an IC50 for 72 hours. Cell proliferation was measured using the SRB assay according to Shekan et al (J Natl Cancer Inst (1990) 82, 1107-112) in order to estimate the IC50 values shown in Table 3. Briefly, cells were plated in 96 well dishes 24 hours prior to compound addition at the densities specified in Table 5.1. The assay was terminated with the addition of cold TCA to a final concentration of 10% after growth medium has been removed and the plates were incubated over night at 4°C. The plates were then washed 5 times with water and 100µl of a Sulforhodamine B solution (4%) was added to each well. The plates were then incubated for 10 minutes at room temperature before removal of unbound dye by washing with 1% acetic acid. The bound dye was solubilised with 10 mM Trizma base and the absorbance read at OD520.
(§3) Inhibitory activity of the compounds (IC) was calculated as % inhibition of cell proliferation compared to cells treated with the solvent (DMSO).
(§4) Table 8.1: 18-Cell Line Panel

[3] = system: HT-29; assay: SRB cell proliferation assay, HT-29; settings: Homo sapiens, HT-29, 72 h, 72 hours, SRB assay; read-out: CELLULAR IC50 HT-29
Procedure: as §1, §2, §3, §4

[4] = system: HCT 116; assay: SRB cell proliferation assay, HCT 116; settings: Homo sapiens, HCT-116, 72 h, 72 hours, SRB assay; read-out: CELLULAR IC50 HCT 116
Procedure: as §1, §2, §3, §4

Sequence of Plk1 (P53350 whole entry, species assumed): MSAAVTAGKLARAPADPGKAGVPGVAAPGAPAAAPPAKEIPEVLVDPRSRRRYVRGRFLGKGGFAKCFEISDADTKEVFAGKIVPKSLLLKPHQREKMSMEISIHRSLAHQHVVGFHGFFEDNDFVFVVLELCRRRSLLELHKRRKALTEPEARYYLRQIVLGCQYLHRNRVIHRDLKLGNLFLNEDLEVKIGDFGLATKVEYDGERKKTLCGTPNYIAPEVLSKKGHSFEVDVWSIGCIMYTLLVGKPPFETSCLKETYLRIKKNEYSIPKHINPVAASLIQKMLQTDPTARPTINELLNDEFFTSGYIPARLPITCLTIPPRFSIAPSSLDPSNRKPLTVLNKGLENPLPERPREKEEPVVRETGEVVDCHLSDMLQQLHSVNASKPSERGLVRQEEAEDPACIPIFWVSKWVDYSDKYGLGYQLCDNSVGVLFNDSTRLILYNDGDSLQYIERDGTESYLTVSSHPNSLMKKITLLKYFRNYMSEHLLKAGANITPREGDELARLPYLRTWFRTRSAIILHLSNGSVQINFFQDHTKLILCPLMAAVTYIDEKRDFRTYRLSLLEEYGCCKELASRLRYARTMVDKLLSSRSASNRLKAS

Compound	IC50 [1] [nM]	IC50 [3] [nM]	IC50 [4] [nM]	IC50 [2] [nM]
4-[8-(Cyclobutylmethyl-methyl-amino)-7-ethyl-5-methyl-6-oxo-5,6,7,8-tetrahydro-pteridin-2-ylamino]-N-[trans-4-(4-cyclopropylmethyl-piperazin-1-yl)-cyclohexyl]-3-methoxy-benzamide [Compound 35]	< 500	–	–	–
CCC1C(=O)N(C)c2cnc(Nc3ccc(C(=O)N[C@H]4CC[C@H](N5CCN(CC6CC6)CC5)CC4)cc3OC)nc2N1N(C)Cc1ccccc1 (relative stereo) [Compound 16, 4-[8-(Benzyl-methyl-amino)-7-ethyl-5-methyl-6-oxo-5,6,7,8-tetrahydro-pteridin-2-ylamino]-N-[trans-4-(4-cyclopropylmethyl-piperazin-1-yl)-cyclohexyl]-3-methoxy-benzamide]	< 100	< 1000	< 1000	> 1000
CCC1C(=O)N(C)c2cnc(Nc3ccc(C(=O)N[C@H]4CC[C@H](N5CCN(CC6CC6)CC5)CC4)cc3OC)nc2N1N(C)CC1CC1 (relative stereo) [Compound 18, 4-[8-(Cyclopropylmethyl-methyl-amino)-7-ethyl-5-methyl-6-oxo-5,6,7,8-tetrahydro-pteridin-2-ylamino]-N-[trans-4-(4-cyclopropylmethyl-piperazin-1-yl)-cyclohexyl]-3-methoxy-benzamide]	< 500	< 1000	< 1000	> 1000
CCCN(C)N1c2nc(Nc3ccc(C(=O)N[C@H]4CC[C@H](N5CCN(CC6CC6)CC5)CC4)cc3OC)ncc2N(C)C(=O)C1CC (relative stereo) [Compound 19, N-[trans-4-(4-Cyclopropylmethyl-piperazin-1-yl)-cyclohexyl]-4-[7-ethyl-5-methyl-8-(methyl-propyl-amino)-6-oxo-5,6,7,8-tetrahydro-pteridin-2-ylamino]-3-methoxy-benzamide]	< 100	< 1000	< 1000	> 1000
CCC1C(=O)N(C)c2cnc(Nc3ccc(C(=O)N[C@H]4CC[C@H](N5CCN(CC6CC6)CC5)CC4)cc3OC)nc2N1N(C)CC(C)C (relative stereo) [Compound 24, N-[trans-4-(4-Cyclopropylmethyl-piperazin-1-yl)-cyclohexyl]-4-[7-ethyl-8-(isobutyl-methyl-amino)-5-methyl-6-oxo-5,6,7,8-tetrahydro-pteridin-2-ylamino]-3-methoxy-benzamide]	< 100	< 1000	< 1000	> 1000
CCC1C(=O)N(C)c2cnc(Nc3ccc(C(=O)N[C@H]4CC[C@H](N5CCN(CC6CC6)CC5)CC4)cc3OC)nc2N1N(C)CC (relative stereo) [Compound 26, N-[trans-4-(4-Cyclopropylmethyl-piperazin-1-yl)-cyclohexyl]-4-[7-ethyl-8-(ethyl-methyl-amino)-5-methyl-6-oxo-5,6,7,8-tetrahydro-pteridin-2-ylamino]-3-methoxy-benzamide]	< 100	< 1000	< 1000	> 1000
CCC1C(=O)N(C)c2cnc(Nc3ccc(C(=O)N[C@H]4CC[C@H](N5CCN(CC6CC6)CC5)CC4)cc3OC)nc2N1N(C)CC1CCCC1 (relative stereo) [Compound 28, 4-[8-(Cyclopentylmethyl-methyl-amino)-7-ethyl-5-methyl-6-oxo-5,6,7,8-tetrahydro-pteridin-2-ylamino]-N-[trans-4-(4-cyclopropylmethyl-piperazin-1-yl)-cyclohexyl]-3-methoxy-benzamide]	< 100	< 1000	< 1000	> 1000
CCC1C(=O)N(C)c2cnc(Nc3ccc(C(=O)N[C@H]4CC[C@H](N5CCN(CC6CC6)CC5)CC4)cc3OC)nc2N1NC (relative stereo) [Compound 31, N-[trans-4-(4-Cyclopropylmethyl-piperazin-1-yl)-cyclohexyl]-4-(7-ethyl-5-methyl-8-methylamino-6-oxo-5,6,7,8-tetrahydro-pteridin-2-ylamino)-3-methoxy-benzamide]	< 100	< 1000	< 1000	> 1000
CCC1C(=O)N(C)c2cnc(Nc3ccc(C(=O)NC4CCN(C)CC4)cc3OC)nc2N1N(C)C (single isomer, unassigned) [Compound 36, 4-(8-dimethylamino-7-ethyl-5-methyl-6-oxo-5,6,7,8-tetrahydro-pteridin-2-ylamino)-3-methoxy-N-(1-methyl-piperidin-4-yl)-benzamide]	> 1000	> 1000	> 1000	> 1000
CCC1C(=O)N(C)c2cnc(Nc3ccc(C(=O)NC4CCN(C)CC4)cc3OC)nc2N1N(C)C (single isomer, unassigned) [Compound 37, 4-(8-dimethylamino-7-ethyl-5-methyl-6-oxo-5,6,7,8-tetrahydro-pteridin-2-ylamino)-3-methoxy-N-(1-methyl-piperidin-4-yl)-benzamide]	< 100	–	–	–
N-(2-Diethylamino-ethyl)-4-(8-dimethylamino-7-ethyl-5-methyl-6-oxo-5,6,7,8-tetrahydro-pteridin-2-ylamino)-3-methoxy-benzamide [Compound 5]	< 100	–	–	–
N-(2-Diisopropylamino-ethyl)-4-(8-dimethylamino-7-ethyl-5-methyl-6-oxo-5,6,7,8-tetrahydro-pteridin-2-ylamino)-3-methoxy-benzamide [Compound 7]	< 100	–	–	–

Further lines, with some results ahead:

IC50 [1] [nM]	IC50 [3] [nM]	IC50 [4] [nM]	Compound	IC50 [2] [nM]
< 100	–	–	4-(8-Dimethylamino-7-ethyl-5-methyl-6-oxo-5,6,7,8-tetrahydro-pteridin-2-ylamino)-3-methoxy-N-(2-piperidin-1-yl-ethyl)-benzamide [Compound 6]	–
< 100	–	–	4-(8-Dimethylamino-7-ethyl-5-methyl-6-oxo-5,6,7,8-tetrahydro-pteridin-2-ylamino)-3-methoxy-N-(4-piperidin-1-ylmethyl-phenyl)-benzamide [Compound 10]	–
< 100	–	–	4-(8-Dimethylamino-7-ethyl-5-methyl-6-oxo-5,6,7,8-tetrahydro-pteridin-2-ylamino)-3-methoxy-N-[4-(4-methyl-piperazin-1-yl)-phenyl]-benzamide [Compound 8]	–
< 100	–	–	4-(8-Dimethylamino-7-ethyl-5-methyl-6-oxo-5,6,7,8-tetrahydro-pteridin-2-ylamino)-N-[4-(4-ethyl-piperazin-1-yl)-phenyl]-3-methoxy-benzamide [Compound 9]	–
< 100	–	–	4-[8-(Cyclopentylmethyl-methyl-amino)-7-ethyl-5-methyl-6-oxo-5,6,7,8-tetrahydro-pteridin-2-ylamino]-N-(1-ethylpiperidin-4-ylmethyl)-3-methoxy-benzamide [Compound 29]	–
